Read-outs that look alike come from different tables or passages of the source.
Target: T1, SIRT1 (Homo sapiens, UniProt Q96EB6)
T1 sequence (Q96EB6 1-747): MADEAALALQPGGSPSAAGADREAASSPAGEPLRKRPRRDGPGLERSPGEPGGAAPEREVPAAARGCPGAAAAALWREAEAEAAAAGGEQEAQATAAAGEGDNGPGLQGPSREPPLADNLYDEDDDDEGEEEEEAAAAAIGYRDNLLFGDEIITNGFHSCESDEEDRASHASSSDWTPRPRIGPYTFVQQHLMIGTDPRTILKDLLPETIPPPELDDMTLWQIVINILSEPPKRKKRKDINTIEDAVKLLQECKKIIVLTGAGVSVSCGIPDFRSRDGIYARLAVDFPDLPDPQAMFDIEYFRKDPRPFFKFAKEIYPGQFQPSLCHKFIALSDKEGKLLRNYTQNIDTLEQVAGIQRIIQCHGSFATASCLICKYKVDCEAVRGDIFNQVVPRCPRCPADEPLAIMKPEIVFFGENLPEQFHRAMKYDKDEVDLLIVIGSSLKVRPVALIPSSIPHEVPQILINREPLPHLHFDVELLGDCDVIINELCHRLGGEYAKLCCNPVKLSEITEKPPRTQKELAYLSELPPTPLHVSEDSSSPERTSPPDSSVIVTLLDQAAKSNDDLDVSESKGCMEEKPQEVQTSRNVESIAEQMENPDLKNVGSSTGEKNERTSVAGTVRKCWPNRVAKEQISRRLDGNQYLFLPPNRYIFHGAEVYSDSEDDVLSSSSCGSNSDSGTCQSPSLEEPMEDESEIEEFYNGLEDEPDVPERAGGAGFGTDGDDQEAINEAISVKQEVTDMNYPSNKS
Assay: Trp mass spectrometry assay of SIRT1 activation
Assay type: biochemical
Conditions: for TRP Activity (EC1.5): EC1.5 = concentration that results in 150% activation of SIRT1
Excerpt: Mass spectrometry based assays were used to identify modulators of SIRT1 activity. […] The peptide was labeled with the fluorophore STMR (excitation 540 nm/emission 580 nm) at the C-terminus. The sequence of the peptide substrate was based on p53 with several modifications. In addition, the methionine residue naturally present in the sequence was replaced with the norleucine because the methionine may be susceptible to oxidation during synthesis and purification. The Trp based assay utilized a peptide having an amino acid residues as follows: Ac-R-H-K-K(Ac)-W-NH2 (SEQ ID NO: 2).
The Trp mass spectrometry assay was conducted as follows. 0.5 μM peptide substrate and 120 μM βNAD^+ were incubated with 10 nM SIRT1 for 25 minutes at 25° C. in a reaction buffer (50 mM HEPES pH 7.5, […], 1 mM DTT, 0.05% BSA). The SIRT1 protein was obtained by cloning the SirT1 gene into a T7-promoter containing vector, which was then expressed in BL21(DE3) bacterial cells and purified as described in further detail below. Test compound was added at varying concentrations to this reaction mixture and the resulting reactions were monitored. After the 25 minute incubation with SIRT1, 10 μL of 10% formic acid was added to stop the reaction. The resulting reactions were sealed and frozen for later mass spec analysis. The relative SIRT1 activity was then determined by measuring the amount of O-acetyl-ADP-ribose (OAADPR) formed (or, alternatively, the amount of deacetylated Trp peptide generated) by the NAD-dependent sirtuin deacetylation reaction in the presence of varying concentrations of the test compound versus control reactions lacking the test compound. The degree to which the test agent activated deacetylation by SIRT1 was expressed as EC1.5 (i.e., the concentration of compound required to increase SIRT1 activity by 50% over the control lacking test compound), and Percent Maximum Activation (i.e., the maximum activity relative to control (100%) obtained for the test compound).
This time point was the same as that used for test compounds and, within the linear range, the endpoint represents a change in velocity.
For the above assay, SIRT1 protein was expressed and purified as follows. The SirT1 gene was cloned into a T7-promoter containing vector and transformed into BL21(DE3). The protein was expressed by induction with 1 mM IPTG as an N-terminal His-tag fusion protein at 18° C. overnight and harvested at 30,000×g. Cells were lysed with lysozyme in lysis buffer (50 mM Tris-HCl, 2 mM Tris[2-carboxyethyl]phosphine (TCEP), 10 μM ZnCl2, 200 mM NaCl) and further treated with sonication for 10 min for complete lysis. The protein was purified over a Ni-NTA column (Amersham) and fractions containing pure protein were pooled, concentrated and run over a sizing column (Sephadex S200 26/60 global). The peak containing soluble protein was collected and run on an Ion-exchange column (MonoQ). Gradient elution (200 mM-500 mM NaCl) yielded pure protein. This protein was concentrated and dialyzed against dialysis buffer (20 mM Tris-HCl, 2 mM TCEP) overnight. The protein was aliquoted and frozen at −80° C. until further use.
“NT” means not tested; “ND” means not determinable.

[1] = Trp peptide assay, maximum activity relative to control (100%), read-out: TRP MAX RESP (percent maximum fold activation)
[2] = Trp mass spectrometry assay, EC1.5 = concentration of test compound that results in 150% activation of SIRT1
[3] = concentration giving 150% activation of SIRT1, Trp peptide substrate
[4] = Trp mass spectrometry assay, concentration of test compound giving 150% activation of SIRT1

## CCc1cnc(NC(=O)N2c3nc(-c4ccnc(C)c4)ccc3N3CC[C@H]2C3)cn1 [(9S)-N-(5-ethylpyrazin-2-yl)-5-(2-methylpyridin-4-yl)-1,6,8-triazatricyclo[7.2.1.0 {2,7}]dodeca-2(7),3,5-triene-8-carboxamide]
Trp peptide assay
  TRP Activity (EC1.5): A (A (EC1.5<1 μM))
[1]
  Emax: > 150%

## Cc1ccncc1-c1ccc2c(n1)N(C(=O)Nc1cncc(F)c1)[C@H]1CCCN2C1 [Example 510]
[2]
  Tryp AVG EC1.5 (μM): B (B (EC1.5 1-25 μM))

## O=C(Nc1ccncn1)N1c2nc(-c3cncc(Cl)c3)ccc2N2CCC1CC2 [Example 576]
[2]
  Tryp AVG EC1.5 (μM): B (B (EC1.5 1-25 μM))

## O=C(NCCCN1CCOCC1)N1c2nc(-c3cccc(C(F)(F)F)c3)ccc2N2CC[C@H]1C2 [Example 612]
[2]
  Tryp AVG EC1.5 (μM): B (B (EC1.5 1-25 μM))

## O=C(Nc1ccccn1)N1c2nc(-c3cccc(C(F)(F)F)c3)ccc2N2CC[C@H]1C2 [816 (7)]
[3]
  Tryp AVG EC1.5 (μM): A (A (EC1.5<1 μM))

## O=C(Nc1cccnc1)N1c2nc(-c3cncc(F)c3)ccc2N2CCC1CC2 [Example 572]
[2]
  Tryp AVG EC1.5 (μM): B (B (EC1.5 1-25 μM))

## O=C(Nc1cccnc1)N1c2nc(N3CCC[C@H](C(F)(F)F)C3)ccc2N2CCC[C@H]1C2 [(9S)-N-(pyridin-3-yl)-5-[(3S)-3-(trifluoromethyl)piperidin-1-yl]-1,6,8-triazatricyclo[7.3.1.0 {2,7}]trideca-2(7),3,5-triene-8-carboxamide]
Trp peptide assay
  TRP Activity (EC1.5): A (A (EC1.5<1 μM))
[1]
  Emax: > 150%

## Cc1cc(-c2ccc3c(n2)N(C(=O)Nc2nc(C)c(C)s2)[C@H]2CCCN3C2)ccn1 [(9S)-N-(dimethyl-1,3-thiazol-2-yl)-5-(2-methylpyridin-4-yl)-1,6,8-triazatricyclo[7.3.1.0 {2,7}]trideca-2(7),3,5-triene-8-carboxamide]
Trp peptide assay
  TRP Activity (EC1.5): A (A (EC1.5<1 μM))
[1]
  Emax: > 150%

## O=C(Nc1cncc(-c2cnco2)c1)N1c2nc(-c3cncc(F)c3)ccc2N2CC[C@H]1C2 [Example 716]
[3]
  Tryp AVG EC1.5 (μM): B (B (EC1.5 1-25 μM))

## Cc1cc(-c2ccc3c(n2)N(C(=O)Nc2ccc4nn(C)cc4c2)[C@H]2CCN3C2)ccn1 [Example 483]
[2]
  Tryp AVG EC1.5 (μM): A (A (EC1.5<1 μM))
Trp mass spectrometry assay, percent maximum fold activation of SIRT1, read-out: Tryp % Fold Act
  Emax: > 150%

## NCc1cccc(NC(=O)N2c3nc(-c4cccc(C(F)(F)F)c4)ccc3N3CC[C@H]2C3)c1 [Example 755]
[3]
  Tryp AVG EC1.5 (μM): B (B (EC1.5 1-25 μM))

## Cc1cc(-c2ccc3c(n2)N(C(=O)N2CCCC2)[C@H]2CCN3C2)ccn1 [(9S)-5-(2-methylpyridin-4-yl)-8-[(pyrrolidin-1-yl)carbonyl]-1,6,8-triazatricyclo[7.2.1.0 {2,7}]dodeca-2,4,6-triene]
Trp peptide assay
  TRP Activity (EC1.5): C (C (EC1.5>25 μM))
[1]
  Emax: < 150%

## O=C(Nc1cnccn1)N1c2nc(-c3cccc(Cl)c3)ccc2N2CCC1CC2 [Example 543]
[2]
  Tryp AVG EC1.5 (μM): B (B (EC1.5 1-25 μM))

## Cc1cc(-c2ccc3c(n2)N(C(=O)N[C@@H](C)c2ccccn2)[C@H]2CCN3C2)ccn1 [(9S)-5-(2-methylpyridin-4-yl)-N-[(1S)-1-(pyridin-2-yl)ethyl]-1,6,8-triazatricyclo[7.2.1.0 {2,7}]dodeca-2,4,6-triene-8-carboxamide]
Trp peptide assay
  TRP Activity (EC1.5): C (C (EC1.5>25 μM))
[1]
  Emax: < 150%

## Cc1ccc(-c2ccc3c(n2)N(C(=O)Nc2cccnc2)[C@H]2CCN3C2)c(C)n1 [(9S)-5-(2,6-dimethylpyridin-3-yl)-N-(pyridin-3-yl)-1,6,8-triazatricyclo[7.2.1.0 {2,7}]dodeca-2(7),3,5-triene-8-carboxamide]
Trp peptide assay
  TRP Activity (EC1.5): B (B (EC1.5 1-25 μM))
[1]
  Emax: > 150%

## COc1cc(NC(=O)N2c3nc(-c4cncc(F)c4)ccc3N3CCC2CC3)nc(OC)n1 [Example 578]
[2]
  Tryp AVG EC1.5 (μM): B (B (EC1.5 1-25 μM))

## NCCCc1ccc(NC(=O)N2c3nc(-c4cccc(C(F)(F)F)c4)ccc3N3CC[C@H]2C3)cc1-c1cnco1 [Example 765]
[3]
  Tryp AVG EC1.5 (μM): A (A (EC1.5<1 μM))

## Cc1cncc(-c2ccc3c(n2)N(C(=O)Nc2cccnn2)[C@H]2CCCN3C2)c1 [Example 519]
[2]
  Tryp AVG EC1.5 (μM): A (A (EC1.5<1 μM))

## O=C(Nc1ccnc(O[C@@H]2CCOC2)n1)N1c2nc(-c3cccc(C(F)(F)F)c3)ccc2N2CC[C@H]1C2 [(9S)-N-{2-[(3R)-oxolan-3-yloxy]pyrimidin-4-yl}-5-[3-(trifluoromethyl)phenyl]-1,6,8-triazatricyclo[7.2.1.0 {2,7}]dodeca-2(7),3,5-triene-8-carboxamide]
Trp peptide assay
  TRP Activity (EC1.5): A (A (EC1.5<1 μM))
[1]
  Emax: > 150%

## O=C(Nc1ccccn1)N1c2nc(N3CCC[C@H]3C(F)(F)F)ccc2N2CC[C@H]1C2 [(9S)-N-(pyridin-2-yl)-5-[(2S)-2-(trifluoromethyl)pyrrolidin-1-yl]-1,6,8-triazatricyclo[7.2.1.0 {2,7}]dodeca-2(7),3,5-triene-8-carboxamide]
Trp peptide assay
  TRP Activity (EC1.5): B (B (EC1.5 1-25 μM))
[1]
  Emax: > 150%

## CC(C)(C)OC(=O)N1CCCN(c2ccc3c(n2)N(C(=O)Nc2ccncn2)[C@H]2CCCN3C2)CC1 [Example 382]
[4]
  Tryp AVG EC1.5 (μM): C (C (EC1.5>25 μM))

## COc1cc(NC(=O)N2c3nc(-c4cncc(Cl)c4)ccc3N3CCC2CC3)nc(OC)n1 [Example 553]
[2]
  Tryp AVG EC1.5 (μM): B (B (EC1.5 1-25 μM))

## O=C(Nc1cnccn1)N1c2nc(-c3cc(F)cc(F)c3)ccc2N2CC[C@H]1C2 [Example 397]
[4]
  Tryp AVG EC1.5 (μM): C (C (EC1.5>25 μM))

## O=C(Nc1cccc(-c2cnco2)c1)N1c2nc(N3CCCN(CC(F)(F)F)CC3)ccc2N2CC[C@H]1C2 [Example 741]
[3]
  Tryp AVG EC1.5 (μM): A (A (EC1.5<1 μM))

## CC(C)(C)OC(=O)N1CCCc2ccc(NC(=O)N3c4nc(-c5cccc(C(F)(F)F)c5)ccc4N4CC[C@H]3C4)cc21 [Example 610]
[2]
  Tryp AVG EC1.5 (μM): B (B (EC1.5 1-25 μM))

## O=C(Nc1cc(OC[C@H](O)CO)ccn1)N1c2nc(-c3cccc(C(F)(F)F)c3)ccc2N2CC[C@H]1C2 [(9S)-N-{4-[(2R)-2,3-dihydroxypropoxy]pyridin-2-yl}-5-[3-(trifluoromethyl)phenyl]-1,6,8-triazatricyclo[7.2.1.0 {2,7}]dodeca-2(7),3,5-triene-8-carboxamide]
Trp peptide assay
  TRP Activity (EC1.5): A (A (EC1.5<1 μM))
[1]
  Emax: > 150%

## O=C(Nc1cnccn1)N1c2nc(-c3cccc(C(F)(F)F)c3)ccc2N2C[C@@H](O)[C@H]1C2 [Example 645]
[3]
  Tryp AVG EC1.5 (μM): A (A (EC1.5<1 μM))

## Cc1ccc(NC(=O)N2c3nc(-c4ccnc(C)c4)ccc3N3CC[C@H]2C3)cn1 [(9S)-N-(6-methylpyridin-3-yl)-5-(2-methylpyridin-4-yl)-1,6,8-triazatricyclo[7.2.1.0 {2,7}]dodeca-2(7),3,5-triene-8-carboxamide]
Trp peptide assay
  TRP Activity (EC1.5): B (B (EC1.5 1-25 μM))
[1]
  Emax: > 150%

## O=C(NCCCCn1ccnc1)N1c2nc(-c3cccc(C(F)(F)F)c3)ccc2N2CC[C@H]1C2 [Example 689]
[3]
  Tryp AVG EC1.5 (μM): B (B (EC1.5 1-25 μM))

Reference: patent publication US9834558B2, “Substituted bridged urea analogs as sirtuin modulators” (GLAXOSMITHKLINE LLC, priority 2013, dated 2017)
